Where “and” joins values, the source holds several entries; their conditions need not be identical. Equal values may be shown once.

From US7799824B2, “Quaternary salt CCR2 antagonists” (OraPharma, Inc., priority 2004, dated 2010) come the findings set out here.

Experiment [1] deals with Ovalbumin-induced Allergic Rhinitis. The experiment in a line: Ovalbumin-induced allergic rhinitis in mice, prophylactic effect. The experiment is classed as in vivo, BALB/c mice. As for the experimental part: BALB/c mice were sensitized by i.p. injection of OVA emulsified in alum (Day 0, 5, 14, 21). Groups of mice were each challenged by intranasal injection of OVA (Day 22-35, 38). Control group mice received an equal volume of vehicle by intranasal injection. Nasal symptoms (number of sneezes and episodes of nose rubbing by the front paws) were counted during the 5 min period following the last intranasal injection (Day 38). […] The histamine receptor antagonist […]® was used as a positive control.

Experiment [2] has the same test system. The experiment in a line: Ovalbumin-induced allergic rhinitis in mice, therapeutic effect. Type of experiment: in vivo, BALB/c mice. The following applies: intranasal 10 μg/nostril four times per day, Days 29-38. As for the experimental part:
BALB/c mice were sensitized by i.p. injection of OVA emulsified in alum (Day 0, 5, 14, 21). Groups of mice were each challenged by intranasal injection of OVA (Day 22-35, 38).
Control group mice received an equal volume of vehicle by intranasal injection. Nasal symptoms (number of sneezes and episodes of nose rubbing by the front paws) were counted during the 5 min period following the last intranasal injection (Day 38).
The anti-histamine Pyralimine and the mast cell-stabilizing agent Ketotifen were used as positive controls.

The subject of experiment [3] is ovalbumin (OVA)-induced asthma. Nature of the experiment: Ovalbumin (OVA)-induced asthma in mice, mast cell-independent model. The experiment is classed as in vivo. Here is the method:
Mice were sensitized by i.p. injection of OVA emulsified in adjuvant (Day 1 and 14). Groups of mice were each challenged by intranasal injection of OVA (Day 25, 26, 27). Compound 17 was administered by i.p. injection (10 and 30 mg/kg) before each intranasal challenge (Day 25, 26, 27).

The subject of experiment [4] is ovalbumin (OVA)-induced asthma. The experiment in a line: Ovalbumin (OVA)-induced asthma in mice, mast cell-dependent model. The experiment is classed as in vivo. Conditions: 30 mg/kg i.p., Day 42-46. Here is the method: Mice were sensitized by i.p. injection with OVA in saline (10 μg) on alternate days (Day 0, 2, 4, 6, 8, 10, 12). Groups of mice were each challenged by intranasal injection of OVA (Day 40, 43, 46). Compound 17 was administered by i.p. injection (30 mg/kg) on consecutive days (Day 42, 43, 44, 45, 46). Compared to vehicle, leukocyte influx was inhibited by 95% and 55% (in two separate assays), LTC4 influx was inhibited by 90% and IL-4 influx was inhibited by 85%.

Consider `C[N+](C)(Cc1ccc(NC(=O)c2ccc(Cl)c(Cl)c2)cc1)C1CCOCC1.[Cl-]` [Cpd 17, [4-(3,4-dichloro-benzoylamino)-benzyl]-dimethyl-(tetrahydro-pyran-4-yl)-ammonium chloride], for which the “inhibition of nasal symptoms (rubbing)” value was 57% in experiment [1] (intranasal 10 μg/nostril), 71% in experiment [1] (intranasal 30 μg/nostril) and 42% in experiment [2]. Further, the “inhibition of nasal symptoms (sneezing)” value is 64% in experiment [1] (intranasal 10 μg/nostril), 82% in experiment [1] (intranasal 30 μg/nostril) and 0% in experiment [2]. Further, the “inhibition of leukocyte influx compared to vehicle” value was 40% in experiment [3] (10 mg/kg i.p. before each intranasal challenge); 70% in experiment [3] (30 mg/kg i.p. before each intranasal challenge); 95% and 55% in experiment [4] (two separate assays). For the same compound, the “inhibition of IL-4 influx compared to vehicle” value in experiment [4] is on record as 85%. For the same compound, the “inhibition of LTC4 influx compared to vehicle” value in experiment [4] was found to be 90%.
